From ChEMBL document CHEMBL4296182, “CO-ADD screening of NIH NCI Diversity Set V”
In brackets after ≈: the same amount, converted by molar mass.

Experiments:
HEK293 = assay: cells; type: functional; conditions: Homo sapiens, ATCC CRL1573, HEK293; ASSAY_TEST Inhibition of Cell Viability; detection method Resazurin; Fluorescence (ex560/em590); MEDIA DMEM with 10% FBS; plate type 384well; TC; CORNING #3712; time 18 hr
Pseudomonas aeruginosa = assay: microbe, parasite or virus in culture; conditions: ATCC 27853, 18 h, ASSAY_TEST Inhibition of Bacterial Growth, detection method Absorption (OD600), MEDIA CAMHB, plate type 384well, NBS, CORNING #3640
Description: Antibacterial activity against Pseudomonas aeruginosa ATCC 27853 (CO-ADD:GN_042); MIC in CAMBH media using NBS plates, by OD(600)

Acinetobacter baumannii = assay: microbe, parasite or virus in culture; conditions: ATCC 19606, 18 h, ASSAY_TEST Inhibition of Bacterial Growth, detection method Absorption (OD600), MEDIA CAMHB, plate type 384well, NBS, CORNING #3640
Description: Antibacterial activity against Acinetobacter baumannii ATCC 19606 (CO-ADD:GN_034); MIC in CAMBH media using NBS plates, by OD600

Staphylococcus aureus = assay: microbe, parasite or virus in culture; conditions: ATCC 43300, 18 h, ASSAY_TEST Inhibition of Bacterial Growth, detection method Absorption (OD600), MEDIA CAMHB, plate type 384well, NBS, CORNING #3640
Description: Antibacterial activity against Staphylococcus aureus MRSA ATCC 43300 (CO-ADD:GP_020); MIC in CAMBH media, using NBS plates, by OD(600)

Escherichia coli = assay: microbe, parasite or virus in culture; conditions: ATCC 25922, 18 h, ASSAY_TEST Inhibition of Bacterial Growth, detection method Absorption (OD600), MEDIA CAMHB, plate type 384well, NBS, CORNING #3640
Description: Antibacterial activity against Escherichia coli ATCC 25922 (CO-ADD:GN_001); MIC in CAMBH media using NBS plates, by OD(600)

Candida albicans = assay: microbe, parasite or virus in culture; conditions: ATCC 90028, ASSAY_TEST Inhibition of Fungal Growth, detection method Absorption (OD530), plate type 384well, NBS, CORNING #3640
Description: Antifungal activity against Candida albicans ATCC 90028 (CO-ADD:FG_001); MIC in YNB media using NBS plates, by OD630

Klebsiella pneumoniae = assay: microbe, parasite or virus in culture; conditions: ATCC 700603, 18 h, ASSAY_TEST Inhibition of Bacterial Growth, detection method Absorption (OD600), MEDIA CAMHB, plate type 384well, NBS, CORNING #3640
Description: Antibacterial activity against Klebsiella pneumoniae MDR ATCC 70063 (CO-ADD:GN_003); MIC in CAMBH media using NBS plates, by OD(600)

Description for Cryptococcus neoformans: Antifungal activity against Cryptococcus neoformans H99 ATCC 208821 (CO-ADD:FG_002); MIC in YNB media using NBS plates, by Resazurin OD(600-570)

| MIC (Pseudomonas aeruginosa) | MIC (Acinetobacter baumannii) | MIC (Staphylococcus aureus) | MIC (Escherichia coli) | MIC (Candida albicans) | MIC (Klebsiella pneumoniae) | MIC (Cryptococcus neoformans) | SMILES | CC50 (HEK293) |
| --- | --- | --- | --- | --- | --- | --- | --- | --- |
| 5 µM (≈ 1.52 µg/mL) | > 10 µM | 1.25 µM (≈ 0.38 µg/mL) | 1.25 µM (≈ 0.38 µg/mL) | > 10 µM | 5 µM (≈ 1.52 µg/mL) | > 10 µM | Nc1ccc(Cn2ccc3c4c(N)nc(N)nc4ccc32)cc1 | > 10 µM |
| > 10 µM | > 10 µM | > 10 µM | > 10 µM | > 10 µM | > 10 µM | > 10 µM | CCN1CCCC(Sc2nc3c(=S)n(C)c(=O)n(C)c3[nH]2)C1 (configuration not stated) | > 10 µM |
| > 10 µM | > 10 µM | 5 µM (≈ 1.78 µg/mL) | 0.156 µM (≈ 0.0557 µg/mL) | > 10 µM | > 10 µM | > 10 µM | CN(C)CCOc1ccc2c(c1)C(=O)/C(=C\c1ncc([N+](=O)[O-])n1C)C2 | 1.55 µM |
| > 10 µM | > 10 µM | 0.312 µM (≈ 0.0841 µg/mL) | > 10 µM | 0.625 µM (≈ 0.168 µg/mL) | > 10 µM | 2.5 µM (≈ 0.673 µg/mL) | O=Nc1c(-c2cccc([N+](=O)[O-])c2)nc2ncccn12 | > 10 µM |
| > 10 µM | > 10 µM | > 10 µM | > 10 µM | 10 µM (≈ 3.08 µg/mL) | > 10 µM | > 10 µM | C=C(C)C(=O)Oc1ccc(/N=N/c2ccc(C)cc2)ccc1=O | > 10 µM |
| > 10 µM | > 10 µM | > 10 µM | > 10 µM | 0.625 µM (≈ 0.195 µg/mL) | > 10 µM | 0.625 µM (≈ 0.195 µg/mL) | O=C1C(Cl)=C(NCCc2ccccc2)C(=O)c2ccccc21 | > 10 µM |
| > 10 µM | > 10 µM | > 10 µM | > 10 µM | > 10 µM | > 10 µM | > 10 µM | O=C(Nc1ccc(Nc2ccncc2)cc1)c1ccc(Nc2ccnc3ccc([N+](=O)[O-])cc23)cc1[N+](=O)[O-] | > 10 µM |
| > 10 µM | > 10 µM | > 10 µM | > 10 µM | > 10 µM | > 10 µM | > 10 µM | Cc1cc2nc(CS)[nH]c2cc1C | > 10 µM |
| > 10 µM | > 10 µM | > 10 µM | > 10 µM | ≤ 0.0781 µM | > 10 µM | > 10 µM | Cn1cnc([N+](=O)[O-])c1S(=O)(=O)Oc1cccc2ccccc12 | 8.21 µM |
| > 10 µM | > 10 µM | > 10 µM | > 10 µM | > 10 µM | > 10 µM | > 10 µM | Sc1ncnc2c1ncn2C1CCCO1 (configuration not stated) | > 10 µM |
| > 10 µM | > 10 µM | > 10 µM | > 10 µM | > 10 µM | > 10 µM | > 10 µM | O=C(Nc1ccc(Cl)c(Cl)c1)Nc1ccc([N+](=O)[O-])cn1 | > 10 µM |
| > 10 µM | > 10 µM | > 10 µM | > 10 µM | > 10 µM | > 10 µM | > 10 µM | O=C(O)C(=O)Nc1nc[nH]n1 | > 10 µM |
| > 10 µM | > 10 µM | > 10 µM | > 10 µM | 5 µM (≈ 1.63 µg/mL) | > 10 µM | 10 µM (≈ 3.25 µg/mL) | N=C(Nc1nc(-c2ccccn2)cc2ccccc12)c1ccccn1 | > 10 µM |
| > 10 µM | > 10 µM | > 10 µM | > 10 µM | 5 µM (≈ 1.2 µg/mL) | > 10 µM | 5 µM (≈ 1.2 µg/mL) | O=[N+]([O-])c1cnc(Sc2ccncn2)s1 | > 10 µM |
| > 10 µM | > 10 µM | > 10 µM | > 10 µM | > 10 µM | > 10 µM | > 10 µM | CCOC(=O)c1ccc(Nc2sc(C(=O)c3cccc([N+](=O)[O-])c3)c(N)c2C#N)cc1 | > 10 µM |
| > 10 µM | > 10 µM | > 10 µM | > 10 µM | > 10 µM | > 10 µM | 10 µM | Cc1c2cc[n+](CCN3CCCCC3)cc2c(C)c2c1[nH]c1ccc(O)cc12 | > 10 µM |
| > 10 µM | > 10 µM | > 10 µM | > 10 µM | > 10 µM | > 10 µM | > 10 µM | O=C(Nc1ccccc1)C1=C(Nc2ccccc2)CSC1 | > 10 µM |
| > 10 µM | > 10 µM | 0.156 µM (≈ 0.0498 µg/mL) | 5 µM (≈ 1.59 µg/mL) | > 10 µM | > 10 µM | > 10 µM | Nc1nc(N)c2cc(Sc3ccc4ccccc4c3)ccc2n1 | 4.64 µM |
| > 10 µM | > 10 µM | > 10 µM | > 10 µM | 0.625 µM (≈ 0.108 µg/mL) | > 10 µM | 1.25 µM (≈ 0.216 µg/mL) | O=Cc1ccc(O)c2ncccc12 | > 10 µM |
| > 10 µM | > 10 µM | > 10 µM | > 10 µM | 10 µM (≈ 2.08 µg/mL) | > 10 µM | 10 µM (≈ 2.08 µg/mL) | O=[N+]([O-])c1cc(F)c2cccnc2c1O | > 10 µM |
| > 10 µM | > 10 µM | > 10 µM | > 10 µM | 2.5 µM (≈ 0.759 µg/mL) | > 10 µM | > 10 µM | C/C(=N/NC(=S)N1CC2CCC(CC2)C1)c1cnccn1 | > 10 µM |
| > 10 µM | > 10 µM | > 10 µM | > 10 µM | > 10 µM | > 10 µM | > 10 µM | Cc1cc2cc3c(O)nc(O)nc3nc2cc1C | > 10 µM |
| > 10 µM | > 10 µM | > 10 µM | > 10 µM | > 10 µM | > 10 µM | > 10 µM | Cc1ccc(NCCN(C)C)c2c(=O)c3cc(O)ccc3sc12 | 1.3 µM |
| > 10 µM | > 10 µM | > 10 µM | > 10 µM | > 10 µM | > 10 µM | > 10 µM | O=C(Nc1ccc(C2=NCCN2)cc1)c1ccc(Cl)c(C(=O)Nc2ccc(C3=NCCN3)cc2)c1 | > 10 µM |
| > 10 µM | > 10 µM | > 10 µM | > 10 µM | 2.5 µM (≈ 0.476 µg/mL) | > 10 µM | 10 µM (≈ 1.9 µg/mL) | CC(C)=NNc1ncnc2[nH]cnc12 | > 10 µM |
| > 10 µM | > 10 µM | > 10 µM | > 10 µM | > 10 µM | > 10 µM | > 10 µM | O=C(Nc1cccc(-c2nc3ccccc3[nH]2)c1)c1ccc(C(=O)Nc2cccc(-c3nc4ccccc4[nH]3)c2)cc1 | > 10 µM |

| SMILES | MIC (Pseudomonas aeruginosa) | MIC (Acinetobacter baumannii) | MIC (Staphylococcus aureus) | MIC (Escherichia coli) | MIC (Candida albicans) | MIC (Klebsiella pneumoniae) | MIC (Cryptococcus neoformans) | CC50 (HEK293) |
| --- | --- | --- | --- | --- | --- | --- | --- | --- |
| COC1CC(C)C(OC)c2cc(O)cc(c2O)NC(=O)/C(C)=C/C=C\C(C)C(OC(N)=O)/C(C)=C\C(C)C1OC (configuration not stated) | > 10 µM | > 10 µM | > 10 µM | > 10 µM | > 10 µM | > 10 µM | > 10 µM | 1.09 µM |
| CC[C@@]1(O)C(=O)OCc2c1cc1n(c2=O)Cc2cc3c(NC(=O)CN)cccc3nc2-1 | > 10 µM | > 10 µM | > 10 µM | > 10 µM | > 10 µM | > 10 µM | > 10 µM | 0.6 µM |
| CSc1nc(C)c(Br)c(N2CC2)n1 | > 10 µM | > 10 µM | > 10 µM | > 10 µM | > 10 µM | > 10 µM | > 10 µM | > 10 µM |
| NC(=S)c1cn(C2OC(CO)C(O)C2O)c2ncnc(N)c12 (configuration not stated) | > 10 µM | > 10 µM | > 10 µM | > 10 µM | 10 µM (≈ 3.25 µg/mL) | > 10 µM | > 10 µM | 0.521 µM |
| COC1CC2\C=C(C)/C=C/C=C/C(=O)NC(c3ccccc3)C/C=C/CCC(O)CC(=O)C2=C1O (configuration not stated) | > 10 µM | > 10 µM | 0.156 µM (≈ 0.0746 µg/mL) | > 10 µM | 1.25 µM (≈ 0.597 µg/mL) | > 10 µM | 5 µM (≈ 2.39 µg/mL) | 2.08 µM |
| CC1=C(O)C(=O)C=C2C1=CC=C1[C@@]2(C)CC[C@@]2(C)[C@@H]3C[C@](C)(C(=O)O)CC[C@]3(C)CC[C@]12C [CELASTROL] | > 10 µM | > 10 µM | 2.5 µM (≈ 1.13 µg/mL) | > 10 µM | > 10 µM | > 10 µM | > 10 µM | 0.837 µM |
| O=[N+]([O-])c1oc2ccc3ccccc3c2c1CCO | > 10 µM | > 10 µM | 2.5 µM (≈ 0.643 µg/mL) | 5 µM (≈ 1.29 µg/mL) | > 10 µM | > 10 µM | > 10 µM | 1.13 µM |
| CN1CCN(c2ccc([N+](=O)[O-])c3no[n+]([O-])c23)CC1 | > 10 µM | > 10 µM | 2.5 µM (≈ 0.698 µg/mL) | > 10 µM | > 10 µM | > 10 µM | > 10 µM | 0.755 µM |
